Experimental data as given in patent publication US20140179606A1, “LEFT VENTRICULAR DIASTOLIC FUNCTION IMPROVING AGENT” (priority 2011, published 2014).

Tests used:
[1] = system: acute heart failure model; assay: Evaluation of hemodynamics in acute heart failure model; format: in vivo, beagle; conditions: for Systemic Vascular Resistance Change Ratio (%): indication of afterload; for Systemic Vascular Resistance Change Ratio (%) / Peak Negative dP/dt Change Ratio (%) / Peak Positive dP/dt Change Ratio (%) / Left Ventricular End-Diastolic Pressure Change Ratio (%): continuous iv; for Peak Negative dP/dt Change Ratio (%): indication of left ventricular diastolic function, 60 minutes after administration; for Peak Negative dP/dt Change Ratio (%) / Peak Positive dP/dt Change Ratio (%): two increasing doses; for Peak Positive dP/dt Change Ratio (%): indication of left ventricular systolic function; for Left Ventricular End-Diastolic Pressure Change Ratio (%): indication of preload
Description: The acute heart failure model was produced by the following method. A male beagle (the weight was more than 10 kg) was anesthetized with pentobarbital sodium (30 mg/kg, intravenous administration), and then a tracheal catheter was introduced to the trachea and connected to a ventilator. The frequency of breath of the ventilator was set to 15 strokes per minute; the amount of ventilation was set to 20 mL/kg per stroke, and the respiration was controlled by using a mixed gas (Air:O2=3:0.2 as an indication). The animal was fixed with the lateral position and the hair of the left chest area, left and right femoral areas and cervical region was cut. Pentobarbital sodium (5 mg/kg/hr) was intravenously administered continuously from right cephalic vein, and the anesthesia was continued. The chest was opened at the left fourth rib, and the ascending aorta origin was exfoliated. Lactated Ringer's solution was intravenously administered continuously from the catheter inserted to the left femoral vein (5 mL/min). Further, in order to prevent the arrhythmia from occurring, propranolol hydrochloride (0.3 mL/min) was administered continuously together with the volume overload (mixed with lactated Ringer's solution) until the completion of the experiment. The left anterior descending coronary artery (LAD) was ligated 30 minutes after the administration of lactated Ringer's solution. After the hemodynamics became stable, methoxamine hydrochloride was administered continuously from the left femoral vein. In order to increase the systemic vascular resistance and thus decrease the cardiac output, methoxamine hydrochloride was maintained at the volume of 5 to 10 μg/kg/min so that the cardiac output decreased by 20% or more in comparison with the cardiac output before the volume overload, and methoxamine hydrochloride was administered continuously until the completion of the experiment.
From the point, at which the cardiac output decreased by 20% or more after the initiation of the continuous administration of methoxamine hydrochloride in comparison with the cardiac output before the administration of lactated Ringer's solution and other hemodynamics became stable, physiological saline (0.3 mL/min) was administered from the right femoral vein for 30 minutes (preceding phase of administration). Then, the compound A, (11α,13E,15α)-9-oxo-11,15-dihydroxy-16-(3-methoxymethylphenyl)-17,18,19,20-tetranor-5-tiaprost-13-enoic acid methyl ester (the EP4 agonist described in Example 1 of WO2000/003980, abbreviated to […] below), and carperitide (atrial natriuretic peptide), nitroglycerin (a vasodilator), nicorandil (a vasodilator) and milrinone (a phosphodiesterase III inhibitor: a compound having a cardiac effect and a vasodilation effect), which are existing agents for treating heart failure, were each administered for 30 minutes with increasing the dose gradually from the right femoral vein at the doses in the following table. The administered groups (four examples each) and the doses are shown below.
The measurement of cardiac hemodynamics was conducted every 10 minutes both during the preceding phase of administration and during the continuous administration of each dose.
Through the catheter introducer inserted to the right femoral artery, a pig tale catheter was introduced and indwelled in the left ventricle and connected to a disposable blood pressure transducer, and the left ventricular pressure (LVP) was measured through an amplifier for the measurement. […]

normal dog = assay: Left ventricular action in a normal dog; format: in vivo
Description: From the above results, it was considered that milrinone is not always appropriate for administering to a diastolic heart failure patient with normal systolic function because milrinone has a strong cardiotonic action, while the compound A selectively improves left ventricular diastolic function as compared with the effect to improve systolic function and thus is also effective for a diastolic heart failure patient with normal systolic function as well as a systolic heart failure patient in which both diastolic function and systolic function are impaired.

[2] = system: Dahl rat heart failure model; assay: Cardiac function and survival rate using Dahl rat (hypertensive / chronic heart failure model); format: in vivo; conditions: oral, two times a day for 90 days, compound A 300 μg/kg, milrinone 1000 μg/kg; for survival rate: FIG. 2; for left ventricular diastolic wall strain (DWS) index: FIG. 3
Description: A model of hypertensive heart failure, which is diastolic heart failure, was prepared by feeding solid feed for high salt load rat (corresponding to 8% salt) to 47-day-old male DIS/Eis rats (Dahl rats). Solid feed for normal feed rat (corresponding to 0.3% salt) was fed to a normal control group (10 examples).
The test compounds were orally administered repeatedly for 90 days two times a day with the dose of 5 mL/kg using a stomach tube to 13-week-old Dahl rats. The dose of the compound A was 300 μg/kg and the dose of milrinone was 1000 μg/kg (30 examples each).
The cardiac functions were measured with using an ultrasound imaging device under 2% isoflurane anesthesia by a general anesthesia device for an animal before the administration (12 weeks old: grouping value), on the 45th day of the administration and the 91st day of the administration. The hair of the chest area of a rat was removed and the changes in the left ventricular end-diastolic dimension, the left ventricular end-systolic dimension, the end-diastolic left ventricular anterior wall thickness, the end-diastolic left ventricular posterior wall thickness, the end-systolic left ventricular posterior wall thickness and the left ventricular posterior epicardial surface were measured with placing a linear probe on the chest area with M-mode. Further, the left ventricular ejection fraction (LVEF) and the left ventricular diastolic wall strain (DWS) index as the indication of left ventricular diastolic function were calculated.
The general state was observed once or twice a day throughout the experiment period, and dead or alive was confirmed and the general symptoms were recorded.

[3] = Toxicity, repeated oral administration to a dog for four weeks; format: in vivo; conditions: dose up to 30 times the dose showing vasodilation effect on single administration
Description: Toxicity of the compound used for the agent of present invention is very low, and the compound is safe enough to be used as a medicine.

O=C(O)CCCCCCN1C(=O)CC[C@@H]1CC[C@@H](O)Cc1cccc(C(F)(F)F)c1 [Compound C]
Systemic Vascular Resistance Change Ratio (%) [1]: −14%
Peak Negative dP/dt Change Ratio (%) [1]: −1%
Peak Positive dP/dt Change Ratio (%) [1]: 2%
Left Ventricular End-Diastolic Pressure Change Ratio (%) [1]: −37%

O=C(O)CCCSCCN1C(=O)CC[C@@H]1/C=C/[C@@H](O)Cc1ccc(F)cc1 [Compound A, 4-[(2-{(2R)-2-[(1E,3S)-4-(4-fluorophenyl)-3-hydroxy-1-buten-1-yl]-5-oxo-1-pyrrolidinyl}ethyl)thio]butanoic acid]
PaO2 (arterial oxygen pressure) change ratio ([1]; continuous iv 3, 10 ng/kg/min): 111.5%
increase of cardiac output ([1]; continuous iv 3, 10 ng/kg/min): about 60%
urine volume change ratio ([1]; continuous iv 3, 10 ng/kg/min): 145.4%
Systemic Vascular Resistance Change Ratio (%) [1]: −34%
Peak Negative dP/dt Change Ratio (%) [1]: 48%
Peak Positive dP/dt Change Ratio (%) [1]: 16%
Left Ventricular End-Diastolic Pressure Change Ratio (%) [1]: −42%
left ventricular diastolic / systolic action in a normal dog (normal dog): did not show left ventricular diastolic action or left ventricular systolic action
survival rate [2]: drastically improved the survival rate
left ventricular diastolic wall strain (DWS) index [2]: remarkably improved DWS
toxicity [3]: not found to be toxic

O=C(O)CCCSCCN1C(=O)CC[C@@H]1CC[C@@H](O)c1cccc(Oc2cccc(F)c2)c1 [Compound D]
Systemic Vascular Resistance Change Ratio (%) [1]: −42%
Peak Negative dP/dt Change Ratio (%) [1]: −5%
Peak Positive dP/dt Change Ratio (%) [1]: −9%
Left Ventricular End-Diastolic Pressure Change Ratio (%) [1]: −46%

O=C(NCCO[N+](=O)[O-])c1cccnc1 [Nicorandil, nicorandil]
Peak Negative dP/dt Change Ratio (%) [1]: −7%

Cc1[nH]c(=O)c(C#N)cc1-c1ccncc1 [Milrinone, milrinone]
Peak Negative dP/dt Change Ratio (%) [1]: 23%
Peak Positive dP/dt Change Ratio (%) [1]: 38%
left ventricular diastolic / systolic action in a normal dog (normal dog): showed a strong left ventricular systolic effect
survival rate [2]: the degree of the improvement of the survival rate was small
left ventricular diastolic wall strain (DWS) index [2]: did not improve DWS

CC[C@H](C)[C@@H]1NC(=O)[C@H](CCCNC(=N)N)NC(=O)[C@H](CC(=O)O)NC(=O)[C@H](CCSC)NC(=O)[C@H](CCCNC(=N)N)NC(=O)CNC(=O)CNC(=O)[C@H](Cc2ccccc2)NC(=O)[C@@H](NC(=O)[C@H](CO)NC(=O)[C@H](CO)NC(=O)[C@H](CCCNC(=N)N)NC(=O)[C@H](CCCNC(=N)N)NC(=O)[C@H](CC(C)C)NC(=O)[C@@H](N)CO)CSSC[C@@H](C(=O)N[C@@H](CC(N)=O)C(=O)N[C@@H](CO)C(=O)N[C@@H](Cc2ccccc2)C(=O)N[C@@H](CCCNC(=N)N)C(=O)N[C@@H](Cc2ccc(O)cc2)C(=O)O)NC(=O)CNC(=O)[C@H](CC(C)C)NC(=O)CNC(=O)[C@H](CO)NC(=O)[C@H](CCC(N)=O)NC(=O)[C@H](C)NC(=O)CNC1=O [Carperitide, carperitide]
Peak Negative dP/dt Change Ratio (%) [1]: −6%

COCc1cccc(CC(O)/C=C/C2C(O)CC(=O)C2CCSCCCC(=O)OC)c1 (stereo not drawn) [Compound B, (11α,13E,15α)-9-oxo-11,15-dihydroxy-16-(3-methoxymethylphenyl)-17,18,19,20-tetranor-5-tiaprost-13-enoic acid methyl ester]
Systemic Vascular Resistance Change Ratio (%) [1]: −43%
Peak Negative dP/dt Change Ratio (%) [1]: −3%
Peak Positive dP/dt Change Ratio (%) [1]: −4%
Left Ventricular End-Diastolic Pressure Change Ratio (%) [1]: −41%

O=[N+]([O-])OCC(CO[N+](=O)[O-])O[N+](=O)[O-] [Nitroglycerin, nitroglycerin]
Peak Negative dP/dt Change Ratio (%) [1]: −8%
